In data set [1] the test system is MCF-7 (human breast cancer cell line). Put plainly: MTT anti-proliferative assay, MCF-7. The class given is cell-based. The following applies: MCF7, MCF-7, mean of at least three experiments, read-out: Cytotoxicity IC50 MCF-7. How it is done:
(§1) Sorafenib was used as a reference drug.
(§2) Anti-proliferative activity activities were tested using MTT assay as described in Supplementary Materials. […]
(§3) S2.1. In vitro anti-proliferative activities
(§4) The in vitro antiproliferative activities of all the synthesized compounds against three human tumor cell lines namely, MCF-7 (human breast cancer cell line), HepG2 (human liver […]
(§5) in the literature, using MTT assay protocol. Sorafenib was used in this test as a positive control.
(§6) The anti-proliferative activity was assessed quantitatively as follows.
(§7) Human cancer cell lines were seeded in 96-well plates at a density of 3-8 × 10^3 cells/well.
(§8) Next, the cells were incubated for 12 h in a 5% CO2 incubator at 37 °C. Then, for each well, the growth medium was exchanged with 0.1 ml of fresh medium containing graded concentrations of the test compounds or equal DMSO. Then 10 μl MTT solution ([…]) was added to each well, and the cells were incubated for additional 4 h. The crystals of MTT-formazan were dissolved in 100 μl of DMSO; the absorbance of each well was measured at 490 nm using an automatic ELISA reader system (TECAN, CHE). The IC50 values were calculated using the nonlinear regression fitting models (Graph Pad, Prism Version 5). The data represented the mean of three independent experiments in triplicate and were expressed as means ± SD. The IC50 value was […]
(§9) defined as the concentration at which 50% of the cells could survive. […]
A general note: Tetrazolium assays rely on reduction of a dye to a coloured formazan, in cell work by metabolically active cells.

For data set [2], the system named is HepG2 (human liver carcinoma cell line). Kind of data set: MTT anti-proliferative assay, HepG2. The settings on record: HepG2, mean of at least three experiments, read-out: Cytotoxicity IC50 HepG-2. The class given is cell-based. The procedure: as §1, §2, §3, §4, §5, §6, §7, §8, §9
The test system of data set [3] is colorectal carcinoma (HCT-116). Put plainly: MTT anti-proliferative assay, HCT-116. The class given is cell-based. The following applies: Homo sapiens, HCT-116, read-out: Cytotoxicity IC50 HCT-116. How it is done: as §1, §2, §3, §4, §5, §6, §7, §8, §9
The target of the next data set is HDAC1 (Homo sapiens, UniProt Q13547). Put plainly: In vitro HDAC1 inhibitory assay. The class given is biochemical.
A further data set addresses HDAC4 (Homo sapiens, UniProt P56524). Put plainly: In vitro HDAC4 inhibitory assay. The class given is biochemical.
The subject of data set [4] is HCT-116 cells. Put plainly: Flow cytometry cell cycle analysis. The class given is cell-based, human. The following applies: 78 µM, 72 h, share of cells in phase. The procedure:
The effect of the most promising compound, 5m, against the cell cycle was tested in HCT116 cells.
Cell cycle analysis was performed for compound 5m as described in Supplementary Materials. […]
defined as the concentration at which 50% of the cells could survive. The results were expressed […]
S2.2. In-vitro DNA-Flow cytometric (cell cycle) analysis. […]
h. Then, the tested cells were collected by trypsinization and washed in PBS. Ice - cold absolute ethanol was used for fixation of the collected cells. The cells were stained with Cycle TESTTM PLUS DNA Reagent Kit (BD Biosciences, San Jose, CA) accord ing to the manufacturer's instructions. Cell -cycle distribution was evaluated using a flow cytometer.
(§10) S2.3. Annexin V - FITC apoptosis assay.
(§11) To detect the apoptosis induced by compound 5m , HCT-116 cells were seeded and incubated overnight and then treated with compound 5m at concentrations of 78 µM for 72 h. DMSO was chosen as the negative control. After that, the cells were collected and washed with PBS two successive times with centrifugation. Apoptosis detection kit (BD Biosciences, San Jose, CA) was used in this test. According to the manufacturer's protocol the cells were stained by Annexin V-FITC and propidium iodide (PI) in the binding b uffer for 20min at room temperature in the dark. Using a flow cytometer, Annexin V-FITC and PI binding were analyzed. Flowjo software was used to analyze the frequencies in all quadrants.
(§12) S2.4. Apoptotic effect of compound 5m treatment. […]
(§13) cells treated with compound 5m. […]
For orientation: Flow cytometry measures light scatter and fluorescence of single cells or particles in a stream.

Data set [5] relates to HCT-116 cells. Kind of data set: Annexin-V/propidium iodide apoptosis assay. The class given is cell-based, human. The following applies: 78 µM, 72 h. The procedure: The tested cells were subjected to 78 µM from compound 5m with an incubation time of 72 h.
The apoptotic effect of the compound 5m was tested as described in Supplementary data. Quantitative Real-Time Reverse-Transcriptase PCR (qRT-PCR) technique Using qRT-PCR, the effect of compound 5m on the expression of cleaved caspase-3 and caspase-8 was determined (Supplementary Materials). […]
as §10, §11, §12, §13

For a further data set, the system named is caspase-3. Kind of data set: qRT-PCR caspase-3 level. The class given is cell-based, human. The settings on record: HCT-116 cells, 72 h, versus untreated cells. (Quantitative PCR measures a nucleic acid by following its amplification.)
A further data set has as its system caspase-8. Kind of data set: qRT-PCR caspase-8 level. The class given is cell-based, human. The following applies: HCT-116 cells, 72 h, versus untreated cells.
The nature of the next data set: in vitro. The settings on record: human.

Several values for one entry are separate records, joined by “and”; a condition that tells them apart may be missing. Equal values may be shown once.

HDAC4, sequence (P56524 whole entry): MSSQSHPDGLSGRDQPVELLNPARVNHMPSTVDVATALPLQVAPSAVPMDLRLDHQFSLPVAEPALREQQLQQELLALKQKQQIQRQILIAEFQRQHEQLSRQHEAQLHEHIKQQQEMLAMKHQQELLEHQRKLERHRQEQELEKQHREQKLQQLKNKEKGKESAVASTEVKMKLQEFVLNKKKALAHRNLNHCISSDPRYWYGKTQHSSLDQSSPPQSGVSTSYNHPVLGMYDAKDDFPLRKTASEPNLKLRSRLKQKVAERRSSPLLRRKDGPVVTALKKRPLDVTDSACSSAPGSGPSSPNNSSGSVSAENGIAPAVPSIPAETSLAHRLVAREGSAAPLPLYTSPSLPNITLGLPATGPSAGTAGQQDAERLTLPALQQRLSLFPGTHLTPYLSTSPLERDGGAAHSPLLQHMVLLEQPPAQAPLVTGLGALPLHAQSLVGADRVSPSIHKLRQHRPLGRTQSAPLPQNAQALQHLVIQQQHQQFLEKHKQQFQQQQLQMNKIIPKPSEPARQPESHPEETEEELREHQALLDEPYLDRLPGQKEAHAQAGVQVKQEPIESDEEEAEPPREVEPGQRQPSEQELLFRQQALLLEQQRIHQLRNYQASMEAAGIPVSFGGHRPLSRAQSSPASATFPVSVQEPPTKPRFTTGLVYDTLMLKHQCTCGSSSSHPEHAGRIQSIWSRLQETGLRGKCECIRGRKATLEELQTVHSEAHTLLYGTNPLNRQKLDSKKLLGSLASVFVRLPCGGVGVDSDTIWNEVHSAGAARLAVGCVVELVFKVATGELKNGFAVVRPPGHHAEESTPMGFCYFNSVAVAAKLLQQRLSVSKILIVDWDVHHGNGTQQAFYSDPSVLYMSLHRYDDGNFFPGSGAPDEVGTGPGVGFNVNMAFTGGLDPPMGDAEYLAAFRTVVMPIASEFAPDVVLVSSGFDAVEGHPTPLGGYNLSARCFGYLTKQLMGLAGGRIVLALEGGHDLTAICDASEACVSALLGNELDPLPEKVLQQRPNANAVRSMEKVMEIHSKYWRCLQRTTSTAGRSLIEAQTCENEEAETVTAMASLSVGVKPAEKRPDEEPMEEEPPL
HDAC1, sequence (Q13547 whole entry): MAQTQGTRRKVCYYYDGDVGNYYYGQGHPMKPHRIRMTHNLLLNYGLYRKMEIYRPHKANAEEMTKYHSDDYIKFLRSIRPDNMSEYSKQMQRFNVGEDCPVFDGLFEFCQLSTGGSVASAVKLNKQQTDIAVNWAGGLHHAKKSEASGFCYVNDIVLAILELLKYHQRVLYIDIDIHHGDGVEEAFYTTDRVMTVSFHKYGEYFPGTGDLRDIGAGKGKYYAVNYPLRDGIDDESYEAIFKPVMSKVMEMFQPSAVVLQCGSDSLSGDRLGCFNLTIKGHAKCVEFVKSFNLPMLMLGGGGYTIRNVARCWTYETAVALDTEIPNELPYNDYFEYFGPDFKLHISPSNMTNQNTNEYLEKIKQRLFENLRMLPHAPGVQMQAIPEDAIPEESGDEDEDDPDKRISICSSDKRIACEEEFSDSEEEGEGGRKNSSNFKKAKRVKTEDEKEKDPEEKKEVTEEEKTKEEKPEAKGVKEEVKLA
Protocol for caspase-3: (§14) Quantitative Real Time Reverse-Transcriptase PCR technique (determination of caspase-3
(§15) The total RNA was extracted from the control and treated cells by using RNeasy mini kit
(§16) (Qiagen, Germany) according the manufacturer's protocol. Then, the isolated RNAs were
(§17) quantitatively and qualitatively assessed using a NanoDrop®1000 spectrophotometer (Thermo
(§18) Scientific, Wilmington, DE, USA). The RNA aliquots were preserved at - 80 °C till the next
(§19) Reverse transcription and quantification of caspase-3 and caspase-8 mRNA
expressions using qRT-PCR:
(§20) iScriptTM One-Step RT-PCR Kit with SYBR® Green kit (BIORAD Laboratories, USA) was used
(§21) for reverse transcription of total RNA and quantification of the targeted mRNA expressions in
(§22) single reaction tube. In depth, the complementary DNA (cDNA) was performed efficiently from
(§23) the isolated RNA using iScriptTM MMLV (Moloney Murine Leukemia Virus) reverse
(§24) transcriptase. While, the relative expression levels of caspase -3 and caspase-8 mRNA were
(§25) determined using 2X SYBR® Green RT -PCR Reaction Mix, containing iTaq TM DNA polymerase
(§26) and SYBR® Green I dye, on the basis of the manufacturer’s guidelines. GAPDH was used as
(§27) housekeeping gene for data normalization. The reaction Mix consisted of 10 μL of 2X SYBR®
(§28) Green RT-PCR Reaction Mix, 1 μl of forward primer, 1 μl of reverse primer, 1 μl of iScript […]
(§29) were determined by using the 2- ΔΔct method.
Protocol for caspase-8: as §14, §15, §16, §17, §18, §19
expressions using qRT-PCR:
as §20, §21, §22, §23, §24, §25, §26, §27, §28, §29

With `CCn1c(N)c(C(c2ccc([N+](=O)[O-])cc2)c2c(N)n(CC)c(=S)[nH]c2=O)c(=O)[nH]c1=S` [Compound 5f, 5,5′-((4-Nitrophenyl)methylene)bis(6-amino-1-ethyl-2-thioxo-2,3-dihydropyrimidin-4(1H)-one)], the melting point lay in the range of 274 to 275 °C. For the same compound, in data set [1], the IC50 is 9.3 ± 3.4 µM. In data set [2], the half-maximal inhibitory concentration (IC50) came to 49 ± 0.17 µM. The IC50 in data set [3] worked out at 71 ± 2.1 µM. This compound showed an IC50 on HDAC1 of 4 µM. Also, at HDAC4, the IC50 was 12.2 µM.
With `CCCn1c(N)c(C(c2ccccc2)c2c(N)n(CCC)c(=O)[nH]c2=O)c(=O)[nH]c1=O` [Compound 5i, 5,5′-(Phenylmethylene)bis(6-amino-1-propylpyrimidine-2,4(1H,3H)-dione)], the melting point fell in the range of 294 to 295 °C. Also, the half-maximal inhibitory concentration (IC50) in data set [1] came out at 261 ± 2.5 µM. In addition, the IC50 in data set [2] was found to be 4 ± 1 µM. Besides, the half-inhibitory concentration (IC50) in data set [3] came out at 64 ± 2.1 µM. The IC50 against HDAC1 was 0.342 µM and 0.352 µM. On HDAC4, this compound had a 50% inhibitory concentration (IC50) of 19.5 µM.
`CCCn1c(N)c(C(c2ccc(Cl)cc2Cl)c2c(N)n(CCC)c(=O)[nH]c2=O)c(=O)[nH]c1=O` [Compound 5k, 5,5′-((2,4-Dichlorophenyl)methylene)bis(6-amino-1-propylpyrimidine-2,4(1H,3H)-dione)] had a melting point of 285 to 286 °C. Besides, in [1], the IC50 was determined as 242 ± 2 µM. Moreover, the IC50 in data set [2] was determined as 5 ± 2 µM. In addition, the half-maximal inhibitory concentration (IC50) in [3] stood at 80 ± 2.6 µM. Besides, the IC50 against HDAC1 was 0.464 µM. Half-maximal inhibition at HDAC4 (IC50) required 13 µM.
In the case of `CCCn1c(N)c(C(c2ccc(Cl)cc2)c2c(N)n(CCC)c(=O)[nH]c2=O)c(=O)[nH]c1=O` [Compound 5m, 5,5′-((4-Chlorophenyl)methylene)bis(6-amino-1-propylpyrimidine-2,4(1H,3H)-dione)], the melting point fell in the range of 257 to 258 °C. Further, in data set [1], the 50% inhibitory concentration (IC50) amounted to 52 ± 3.5 µM. For the same compound, in [2], the IC50 is 3.3 ± 0.56 µM. Further, the half-maximal inhibitory concentration (IC50) in data set [3] was 78 ± 2 µM. On HDAC1, it took 0.108 µM to reach half-maximal inhibition (IC50). The compound also had an IC50 at HDAC4 of 6.14 µM. Further, in the data set on HCT-116 cells [4], the “%G0–G1” value was determined as 55.31%, the “%G2/M” value stood at 9.81% and the “%S” value is recorded as 34.88%. For the same compound, the “Apoptotic effect, times/fold compared to control cells” value in the data set on HCT-116 cells [5] (37.59% versus 2.17% in control) is approximately 17. In the data set on HCT-116 cells [5] (Annexin-V/PI), the “DNA Content (%) Early (early apoptosis)” value is reported as 22.36%, the “DNA Content (%) Late (late apoptosis)” value was determined as 13.14%, the “DNA Content (%) Total (apoptotic effect)” value is 37.59% and the Necrosis turned out to be 2.09. The “RT-PCR (Fold Change) Caspase-3” value with caspase-3 was 5 Fold Change and 4.891 Fold Change. In the data set on caspase-8, the “RT-PCR (Fold Change) Caspase-8” value is 2.5 Fold Change and 2.655 Fold Change. For the same compound, the IC50 in the data set “in vitro” was determined as 65.7 ± 1.7 µM.

Usually IC50 stands for the concentration that inhibits the measured activity by half. What is called melting point is the temperature of the solid-liquid transition.

The values above are taken from article PMC10384246, “Discovery of New Uracil and Thiouracil Derivatives as Potential HDAC Inhibitors” (Pharmaceuticals, 2023).
